Results as given in patent publication US5883097A, “Soluble azole antifungal salt” (Schering Corporation, priority 1998, dated 1999).
Where a name gives a salt, the structure may show the parent alone. One block for each compound: values may come before it.

Tests used:
[1] = In vivo conversion into the alcohol of formula II
[2] = Solubility in aqueous lactic acid solution / pharmaceutically acceptable carriers; assay type: physicochemical
Solubility in water = assay type: physicochemical
Experimental: (§1) Only 1-2 mg of the hydrochloride salt dissolves in 1 mL of water, and unacceptably large volumes of water would be required for delivery of an effective dose. Furthermore, only in an aqueous hydrochloric acid solution at the physiologically unacceptable pH of 1-1.5 does enough of the hydrochloride acid addition salt of the compound of formula I dissolve to provide a suitably concentrated solution useful for intravenous use.

[3] = Solubility in aqueous hydrochloric acid solution; assay type: physicochemical; conditions: only in an aqueous hydrochloric acid solution; physiologically unacceptable pH
Experimental: as §1

[4] = Serum levels following oral dosing in mice; conditions: methyl cellulose formulation
[5] = tested on: cytochrome P-450 liver drug metabolizing enzymes; experiment: Induction of cytochrome P-450 liver drug metabolizing enzymes, in vivo rat model; conditions: oral administration
[6] = Serum levels following oral dosing in monkeys; conditions: methyl cellulose formulation
[7] = Serum levels following oral dosing in rats; conditions: methyl cellulose formulation
[8] = Serum half life and tissue distribution following O.D. dosing
[9] = Serum levels following oral dosing in dogs; conditions: methyl cellulose formulation
Aspergillus = conditions: SDB, geometric mean MIC and MFC

in vivo conversion into the corresponding alcohol of formula II [1]: readily convertible in vivo
solubility in pharmaceutically acceptable carriers, especially aqueous lactic acid solutions ([2]; aqueous lactic acid solutions): surprisingly soluble
solubility in aqueous lactic acid solution at physiologically acceptable pH ([2]; pH of at least about 3 to 3.5): soluble
solubility in water (Solubility in water; listed as lactic acid addition salt): water soluble
Compound: CCC(C(C)OC(=O)CN)n1ncn(-c2ccc(N3CCN(c4ccc(OCC5COC(Cn6cncn6)(c6ccc(F)cc6F)C5)cc4)CC3)cc2)c1=O (single isomer, unassigned; (-))

pH of aqueous hydrochloric acid at which enough salt dissolves to provide a suitably concentrated solution for intravenous use [3]: 1-1.5
solubility in water (Solubility in water; Hydrochloride): sparingly soluble
solubility (Solubility in water; read-out: amount of salt dissolving in 1 mL of water): 1000 to 2000 µg/mL
Compound: CCC(C(C)OC(=O)CN)n1ncn(-c2ccc(N3CCN(c4ccc(OCC5COC(Cn6cncn6)(c6ccc(F)cc6F)C5)cc4)CC3)cc2)c1=O (single isomer, unassigned; (-)) [Hydrochloride]

Compound: CCC(C(C)O)n1ncn(-c2ccc(N3CCN(c4ccc(OCC5COC(Cn6cncn6)(c6ccc(F)cc6F)C5)cc4)CC3)cc2)c1=O [compound of formula II, -(2 R-cis)-4-[4-[4-[4-[[-5-(2,4-Difluorophenyl)-tetrahydro-5-(1 H-1,2,4-triazol-1-ylmethyl)furan-3-yl]methoxy]phenyl]-1-piperazinyl]phenyl]-2-4-dihydro-2-[(1 S)-ethyl-2(S)-hydroxypropyl]-3 H-1,2,4-triazol-3-one]
serum levels compared to azoles of similar structure, mice [4]: consistently higher serum levels
induction of cytochrome P-450 liver drug metabolizing enzymes [5]: not an inducer
serum levels compared to azoles of similar structure, monkeys [6]: consistently higher serum levels
serum levels compared to azoles of similar structure, rats [7]: consistently higher serum levels
serum half lives [8]: very long serum half lives
tissue distribution [8]: good tissue distribution
serum levels compared to azoles of similar structure, dogs [9]: consistently higher serum levels
in vitro antifungal activity against 37 species of Aspergillus compared to fluconazole (Aspergillus): superior antifungal in vitro activity
